Test results taken from the supplement of paper PMC10307832.

What was measured:
Assay in all cases: relative viability (nuclei count vs DMSO), 5 days (fraction); higher = more cells survive
Dovitinib + Trametinib = compound: CN1CCN(c2ccc3nc(-c4c(N)c5c(F)cccc5[nH]c4=O)[nH]c3c2)CC1 [Dovitinib] + CC(=O)Nc1cccc(-n2c(=O)n(C3CC3)c(=O)c3c(Nc4ccc(I)cc4F)n(C)c(=O)c(C)c32)c1 [Trametinib] (partner 0.02 µM)
Procedure, shortened: (§1)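 Lung cancer cell lines were seeded in 1536-well plates and dosed by pin tool the next day, with either a single drug or a fixed anchor-drug dose combined with five library-drug doses (not always all listed) spaced in √10 steps. Five days later, one step fixed the cells and stained their nuclei (final 0.05% Triton X-100, 1% formaldehyde, 1 ug/ml Hoechst), and nuclei were counted on 4× images. Relative viability is the nuclei count in treated wells divided by the count in vehicle wells, and each value is the median of duplicate plates.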

Dovitinib + OSI-027 = compound: CN1CCN(c2ccc3nc(-c4c(N)c5c(F)cccc5[nH]c4=O)[nH]c3c2)CC1 [Dovitinib] + COc1cccc2cc(-c3nc([C@H]4CC[C@H](C(=O)O)CC4)n4ncnc(N)c34)[nH]c12 [OSI-027] (partner 0.5 µM)
Procedure, shortened: as §1

Dovitinib + Lapatinib = compound: CN1CCN(c2ccc3nc(-c4c(N)c5c(F)cccc5[nH]c4=O)[nH]c3c2)CC1 [Dovitinib] + CS(=O)(=O)CCNCc1ccc(-c2ccc3ncnc(Nc4ccc(OCc5cccc(F)c5)c(Cl)c4)c3c2)o1 [Lapatinib] (partner 2 µM)
Procedure, shortened: as §1

Dovitinib + Linsitinib = compound: CN1CCN(c2ccc3nc(-c4c(N)c5c(F)cccc5[nH]c4=O)[nH]c3c2)CC1 [Dovitinib] + C[C@]1(O)C[C@@H](c2nc(-c3ccc4ccc(-c5ccccc5)nc4c3)c3c(N)nccn32)C1 [Linsitinib] (partner 1 µM)
Procedure, shortened: as §1

Row | Cell Line | relative viability (Dovitinib + Trametinib; first compound 0.02 µM) | relative viability (Dovitinib + Trametinib; first compound 0.06325 µM) | relative viability (Dovitinib + Trametinib; first compound 0.2 µM) | relative viability (Dovitinib + Trametinib; first compound 0.6325 µM) | relative viability (Dovitinib + Trametinib; first compound 2 µM) | relative viability (Dovitinib + OSI-027; first compound 0.02 µM) | relative viability (Dovitinib + OSI-027; first compound 0.06325 µM) | relative viability (Dovitinib + OSI-027; first compound 0.2 µM) | relative viability (Dovitinib + OSI-027; first compound 0.6325 µM) | relative viability (Dovitinib + OSI-027; first compound 2 µM) | relative viability (Dovitinib + Lapatinib; first compound 0.02 µM) | relative viability (Dovitinib + Lapatinib; first compound 0.2 µM) | relative viability (Dovitinib + Lapatinib; first compound 0.6325 µM) | relative viability (Dovitinib + Lapatinib; first compound 2 µM) | relative viability (Dovitinib + Linsitinib; first compound 0.02 µM) | relative viability (Dovitinib + Linsitinib; first compound 0.2 µM) | relative viability (Dovitinib + Linsitinib; first compound 0.6325 µM) | relative viability (Dovitinib + Linsitinib; first compound 2 µM) | relative viability (Dovitinib + Lapatinib; first compound 0.06325 µM) | relative viability (Dovitinib + Linsitinib; first compound 0.06325 µM)
1 | HCC-78 | 0.643 | 0.663 | 0.762 | 0.813 | 0.746 | 0.384 | 0.544 | 0.373 | 0.403 | 0.388 | 0.539 | 0.901 | 1.03 | 0.663 | 0.693 | 0.626 | 0.478 | 0.532 | – | –
2 | HCC-366 | 0.405 | 0.379 | 0.338 | 0.323 | 0.371 | 0.807 | 0.829 | 0.848 | 0.914 | 0.791 | 0.892 | 1.03 | 1.07 | 1.01 | 0.645 | 0.549 | 0.665 | 0.592 | 1.08 | 0.584
3 | HCC-827 | 0.553 | 0.553 | 0.565 | 0.603 | 0.57 | 0.797 | 0.791 | 0.818 | 0.833 | 0.759 | 0.191 | 0.216 | 0.202 | 0.191 | 0.895 | 0.959 | 0.928 | 0.898 | 0.171 | 0.97
4 | HOP-62 | 0.368 | 0.386 | 0.397 | 0.392 | 0.352 | 0.794 | 0.79 | 0.866 | 0.925 | 0.855 | 0.876 | 1 | 1.24 | 1.1 | 0.784 | 1.1 | 0.921 | 1.03 | 0.999 | 0.852
5 | IA-LM | – | – | – | – | – | – | – | – | – | – | 1.07 | 0.709 | 0.648 | 0.821 | 0.602 | 0.627 | 0.614 | 0.547 | 0.693 | 0.544
6 | LC-2-ad | 0.92 | 0.903 | 0.873 | 0.927 | 0.815 | 0.879 | 0.929 | 0.984 | 0.744 | 0.831 | 0.772 | 1.04 | 1.02 | 0.686 | 0.798 | 0.84 | 0.782 | 0.773 | 0.962 | 0.919
7 | LCLC-97TM1 | 0.267 | 0.204 | 0.199 | 0.196 | 0.203 | 0.77 | 0.486 | 0.561 | 0.59 | 0.544 | 0.835 | 1.02 | 0.602 | 1.03 | 0.216 | 0.201 | 0.152 | 0.213 | 0.752 | 0.21
8 | LCLC-103H | 0.683 | 0.723 | 0.622 | 0.556 | 0.667 | 0.415 | 0.477 | 0.523 | 0.452 | 0.479 | – | – | – | – | 1.09 | 1.03 | 1.08 | 1.04 | – | 0.988
9 | LK-2 | 0.758 | 0.751 | 0.784 | 0.809 | 0.585 | 0.187 | 0.192 | 0.202 | 0.252 | 0.173 | 0.878 | 0.858 | 0.83 | 0.709 | 0.688 | 0.484 | 0.608 | 0.565 | 0.914 | 0.604
10 | LOU-NH91 | 0.81 | 0.784 | 0.798 | 0.82 | 0.815 | 0.786 | 0.662 | 0.731 | 0.817 | 0.721 | 0.794 | 0.717 | 0.858 | 0.726 | 0.984 | 0.968 | 1 | 1.05 | 0.675 | 0.915
11 | LU99A | 0.534 | 0.505 | 0.541 | 0.481 | 0.557 | 0.257 | 0.283 | 0.327 | 0.3 | 0.316 | 0.943 | 1.08 | 0.937 | 0.922 | 0.482 | 0.521 | 0.515 | 0.506 | 0.985 | 0.571
12 | NCI-H441 | 0.486 | 0.477 | 0.434 | 0.441 | 0.49 | 0.639 | 0.565 | 0.682 | 0.61 | 0.644 | – | – | – | – | 0.512 | 0.541 | 0.599 | 0.499 | – | 0.537
13 | NCI-H522 | 0.731 | 0.656 | 0.829 | 0.687 | 0.933 | 0.685 | 0.721 | 0.654 | 0.768 | 0.686 | – | – | – | – | – | – | – | – | – | –
14 | NCI-H1299 | – | – | – | – | – | – | – | – | – | – | 0.948 | 0.966 | 0.892 | 0.966 | 0.913 | 0.959 | 0.951 | 0.976 | 1 | 0.954
15 | NCI-H1563 | – | – | – | – | – | 0.825 | 0.797 | 0.827 | 0.758 | 0.785 | 0.92 | 0.944 | 0.982 | 1.18 | 1.28 | 1.14 | 1.21 | 1.2 | 0.994 | 1.17
16 | NCI-H1648 | 0.581 | 0.413 | 0.471 | 0.477 | 0.527 | 0.236 | 0.251 | 0.291 | 0.307 | 0.252 | – | – | – | – | – | – | – | – | – | –
17 | NCI-H1650 | 0.718 | 0.625 | 0.757 | 0.598 | 0.816 | 0.687 | 0.619 | 0.621 | 0.711 | 0.768 | 0.656 | 0.792 | 0.743 | 0.875 | – | – | – | – | 0.698 | –
18 | NCI-H1703 | – | – | – | – | – | – | – | – | – | – | 1.17 | 0.788 | 0.784 | 0.42 | 0.853 | 0.671 | 0.533 | 0.403 | 0.955 | 0.868
19 | NCI-H2170 | 0.928 | 0.92 | 1.04 | 0.866 | 0.945 | 0.572 | 0.711 | 0.718 | 0.708 | 0.723 | 0.291 | 0.273 | 0.267 | 0.277 | – | – | – | – | 0.243 | –
20 | NCI-H2342 | 1.06 | 0.93 | 0.854 | 0.67 | 0.75 | 0.634 | 0.579 | 0.603 | 0.685 | 0.722 | – | – | – | – | – | – | – | – | – | –
